Measurements taken from patent US8389557B2, “Triazole derivatives useful as Axl inhibitors” (Rigel Pharmaceuticals, Inc., priority 2005, dated 2013).

Target: T1, Axl (Homo sapiens, UniProt P30530)
T1 construct: endogenous in cells; host or cells: HeLa cells
T1 sequence (P30530 26-894): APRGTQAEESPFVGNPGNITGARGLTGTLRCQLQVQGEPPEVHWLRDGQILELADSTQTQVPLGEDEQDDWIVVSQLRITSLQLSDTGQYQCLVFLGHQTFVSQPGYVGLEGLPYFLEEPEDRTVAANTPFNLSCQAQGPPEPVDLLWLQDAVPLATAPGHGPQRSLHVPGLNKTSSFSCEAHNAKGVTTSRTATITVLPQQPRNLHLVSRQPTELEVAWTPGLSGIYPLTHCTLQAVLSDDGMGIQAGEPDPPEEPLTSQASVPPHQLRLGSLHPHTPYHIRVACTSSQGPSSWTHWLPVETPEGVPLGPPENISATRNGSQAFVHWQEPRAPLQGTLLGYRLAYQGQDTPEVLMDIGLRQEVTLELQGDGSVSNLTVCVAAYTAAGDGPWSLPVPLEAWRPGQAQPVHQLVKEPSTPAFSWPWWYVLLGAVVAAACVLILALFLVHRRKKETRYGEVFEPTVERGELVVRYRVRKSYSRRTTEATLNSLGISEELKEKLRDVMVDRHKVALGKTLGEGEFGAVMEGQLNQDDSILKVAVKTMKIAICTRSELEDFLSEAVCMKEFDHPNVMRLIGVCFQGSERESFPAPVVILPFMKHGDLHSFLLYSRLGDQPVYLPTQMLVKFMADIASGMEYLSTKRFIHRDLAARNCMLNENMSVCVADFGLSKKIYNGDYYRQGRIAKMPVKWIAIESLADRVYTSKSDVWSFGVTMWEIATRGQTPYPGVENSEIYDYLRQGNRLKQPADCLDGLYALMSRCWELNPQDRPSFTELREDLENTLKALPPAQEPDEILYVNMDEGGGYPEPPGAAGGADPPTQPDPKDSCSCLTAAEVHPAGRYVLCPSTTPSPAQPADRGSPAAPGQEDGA
Experiment: Phospho-Akt in-cell Western assay (inhibition of Axl activity)
Format: cell-based
Summary of the method: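 HeLa cells on poly-L-lysine, starved 24 h in 0.5% FCS DMEM with Axl/Fc 500 ng/mL, pre-treated with compound 1 h at 37° C. Axl stimulated 5 min by anti-Axl/anti-mouse antibody cross-linking. Fixed cells probed with anti-phospho-Akt and HRP secondary, chemiluminescence read.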

[1] = inhibition of Axl activity, phospho-Akt in-cell Western assay, Table 1
[2] = Table 7, Hela cells, Axl antibody cross-linking stimulation, phospho-Akt chemiluminescence
[3] = Table 2, Hela cells, Axl antibody cross-linking stimulation, phospho-Akt chemiluminescence
[4] = inhibition of Axl activity, Table 1
[5] = Table 5, Hela cells, Axl antibody cross-linking stimulation, phospho-Akt chemiluminescence

Compound: Nc1nc(Nc2ccc(OCCN3CCCC3)cc2)nn1C(=O)c1ccc(N2CCOCC2)cc1 [compound 382, 5-amino-1-(4-(morpholin-4-yl)phenyl)carbonyl-3-[4-[2-(pyrrolidin-1-yl)ethoxy]phenylamino]-1H-1,2,4-triazole]
- IC50 [1]: < 1 µM

Compound: COc1cc(NC(=O)n2nc(Nc3ccc(OCCN4CCCCC4)cc3)nc2N)cc(OC)c1 [compound 33, 5-amino-N-(3,5-(dimethoxy)phenyl)-3-[4-[2-(piperidin-1-yl)ethoxy]phenylamino]-1H-1,2,4-triazole-1-carboxamide]
- IC50 [2]: < 1 µM

Compound: N#Cc1ccc(NC(=O)n2nc(Nc3ccc(OCCN4CCCCC4)cc3)nc2N)cc1 [compound 194, 5-amino-N-(4-cyanophenyl)-3-[4-[2-(piperidin-1-yl)ethoxy]phenylamino]-1H-1,2,4-triazole-1-carboxamide]
- IC50 [2]: > 20 µM

Compound: CC(C)(C)c1ccc(C(=O)n2nc(N)nc2Nc2ccc(OCCN3CCCC3)cc2)cc1 [compound 303, 3-amino-1-(4-(tert-butyl)phenyl)carbonyl-5-[4-[2-(pyrrolidin-1-yl)ethoxy]phenylamino]-1H-1,2,4-triazole]
- IC50 [3]: 1 to 10 µM

Compound: Cc1ccc(C(=O)n2nc(Nc3ccc4c(c3)OCCO4)nc2N)cc1Cl [compound 249, 5-amino-1-[(3-chloro-4-methyl)phenyl]carbonyl-3-(1,4-benzodioxan-6-yl)-amino-1H-1,2,4-triazole]
- IC50 [4]: > 20 µM

Compound: Nc1nc(Nc2ccc3c(c2)OCCO3)nn1C(=O)c1ccc(C(F)(F)F)cc1 [compound 244, 5-amino-3-(1,4-benzodioxan-6-yl)amino-1-[(4-trifluoromethyl)phenyl]carbonyl-1H-1,2,4-triazole]
- IC50 [4]: > 20 µM

Compound: CC(C)Oc1ccc(C(=O)n2nc(Nc3ccc(OCCN4CCOCC4)cc3)nc2N)cc1 [compound 159]
- IC50 [4]: < 1 µM

Compound: COc1cc(Nc2nc(N)n(C(=O)c3ccc(C(C)(C)C)cc3)n2)ccc1OCCN1CCCC1 [compound 315, 5-amino-1-(4-(tert-butyl)phenyl)carbonyl-3-[3-methoxy-4-[2-(pyrrolidin-1-yl)ethoxy]phenylamino]-1H-1,2,4-triazole]
- IC50 [1]: < 1 µM

Compound: CSc1ccc(C(=O)n2nc(Nc3ccc4c(c3)OCCO4)nc2N)cc1 [compound 237, 5-amino-3-(1,4-benzodioxan-6-yl)amino-1-(4-thiomethylphenyl)carbonyl-1H-1,2,4-triazole]
- IC50 [4]: 1 to 10 µM

Compound: Cc1cccc(C(=O)n2nc(Nc3ccc4occc4c3)nc2N)c1 [compound 229, 5-amino-3-(benzofuran-5-yl)amino-1-(3-methylphenyl)carbonyl-1H-1,2,4-triazole]
- IC50 [5]: 1 to 10 µM

Compound: Cc1ccc(Nc2nc(N)n(C(=O)c3ccc(C)cc3)n2)cc1 [compound 131, 5-amino-3-[4-(methyl)phenylamino]-1-(4-(methyl)phenyl)carbonyl-1H-1,2,4-triazole]
- IC50 [4]: > 20 µM

Compound: Cc1cccc(C(=O)n2nc(Nc3ccc4oc(CO)cc4c3)nc2N)c1 [compound 136, 5-amino-3-(2-(hydroxymethyl)benzofuran-5-yl)amino-1-(3-(methyl)phenyl)carbonyl-1H-1,2,4-triazole]
- IC50 [5]: 1 to 10 µM

Compound: Nc1nc(Nc2ccc(OCCN3CCCC3)cc2)nn1C(=O)c1ccc(-n2cccc2)cc1 [compound 282, 5-amino-1-(4-(pyrrol-1-yl)phenyl)carbonyl-3-[4-[2-(pyrrolidin-1-yl)ethoxy]phenylamino]-1H-1,2,4-triazole]
- IC50 [1]: < 1 µM

Compound: Nc1nc(Nc2ccc3c(c2)OCCO3)n(C(=O)c2cccc(OCc3ccccc3)c2)n1 [compound 155, 3-amino-1-(3-(benzyloxy)phenyl)carbonyl-5-(1,4-benzodioxan-6-yl)amino-1H-1,2,4-triazole]
- IC50 [3]: > 20 µM

Compound: Nc1nc(Nc2ccc(OCCN3CCCC3)cc2)nn1C(=S)Nc1c(F)cccc1F [compound 326, 5-amino-N-(2,6-difluorophenyl)-3-[4-[2-(pyrrolidin-1-yl)ethoxy]phenylamino]-1H-1,2,4-triazole-1-carbothioamide]
- IC50 [2]: < 1 µM

Compound: CS(=O)(=O)c1ccc(C(=O)n2nc(Nc3ccc4c(c3)OCCO4)nc2N)cc1 [compound 248, 5-amino-3-(1,4-benzodioxan-6-yl)amino-1-[(4-methylsulfonyl)phenyl]carbonyl-1H-1,2,4-triazole]
- IC50 [4]: > 20 µM

Compound: CN1CCN(c2ccc(Nc3nc(N)n(C(=O)c4cccc(OC(C)(C)C)c4)n3)cc2)CC1 [compound 358, 5-amino-1-(3-(tert-butoxy)phenyl)carbonyl-3-[4-(4-methylpiperazin-1-yl)phenylamino]-1H-1,2,4-triazole]
- IC50 [1]: < 1 µM

Compound: CC(=O)N(C)c1ccc(Nc2nc(N)n(C(=O)NC3CCCC3)n2)cc1 [compound 177, 3-[4-(acetyl(methyl)amino)phenyl]amino-5-amino-N-cyclopentyl-1H-1,2,4-triazole-1-carboxamide]
- IC50 [2]: > 20 µM

Compound: CN1CCN(c2ccc(Nc3nc(N)n(C(=O)C4CC5CCC4C5)n3)cc2)CC1 (stereo not drawn) [compound 365, 5-amino-1-(bicyclo[2.2.1]heptan-2-yl)carbonyl-3-[4-(4-methylpiperazin-1-yl)phenylamino]-1H-1,2,4-triazole]
- IC50 (Table 3, Hela cells, Axl antibody cross-linking stimulation, phospho-Akt chemiluminescence): > 20 µM

Compound: Cc1cccc(C(=O)n2nc(Nc3cccc(OCC(=O)NCC(O)CO)c3)nc2N)c1 (stereo not drawn) [compound 153, 5-amino-3-[3-(N-(2,3-dihydroxypropyl)amino)carbonylmethoxy]-phenylamino-1-(3-(methyl)phenyl)carbonyl-1H-1,2,4-triazole]
- IC50 [4]: 1 to 10 µM

Compound: CC(C)Oc1ccc(C(=O)n2nc(Nc3ccc(OCCC4OCCO4)cc3)nc2N)cc1 [compound 158, 5-amino-3-[4-[2-(1,3-dioxolan-2-yl)ethoxy]phenylamino]-1-(4-(iso-propoxy)phenyl)carbonyl-1H-1,2,4-triazole]
- IC50 [4]: 1 to 10 µM

Compound: CN(C)c1ccc(C(=O)n2nc(NC3CCN(S(C)(=O)=O)CC3)nc2N)cc1 [compound 395, 5-amino-1-(4-(dimethylamino)phenyl)carbonyl-3-(1-methylsulfonylpiperidin-4-yl)amino-1H-1,2,4-triazole]
- IC50 [5]: > 20 µM

Compound: Cc1ccc(NC(=O)n2nc(N)nc2Nc2ccc(OCCN3CCCCC3)cc2)cc1 [compound 183, 3-amino-N-(4-(methyl)phenyl)-5-[4-[2-(piperidin-1-yl)ethoxy]phenylamino]-1H-1,2,4-triazole-1-carboxamide]
- IC50 (Table 8, Hela cells, Axl antibody cross-linking stimulation, phospho-Akt chemiluminescence): 1 to 10 µM

Compound: Cc1cc(C(=O)n2nc(Nc3ccc4c(c3)OCCO4)nc2N)ccc1OC(C)C [compound 258, 5-amino-3-(1,4-benzodioxan-6-yl)amino-1-(3-methyl-4-iso-propoxy)phenylcarbonyl-1H-1,2,4-triazole]
- IC50 [4]: 1 to 10 µM

Compound: CC(=O)N(C)c1ccc(Nc2nc(N)n(C(=O)Nc3ccc(Cl)cc3)n2)cc1 [compound 174, 3-[4-(acetyl(methyl)amino)phenyl]amino-5-amino-N-(4-chlorophenyl)-1H-1,2,4-triazole-1-carboxamide]
- IC50 [2]: > 20 µM

Compound: Nc1nc(Nc2ccc(Cl)cc2)nn1C(=O)c1ccc(Cl)cc1 [compound 217, 5-amino-3-(4-chlorophenyl)amino-1-(4-chlorophenyl)carbonyl-1H-1,2,4-triazole]
- IC50 [4]: > 20 µM

Compound: CC(C)(C)Oc1ccc(C(=O)n2nc(Nc3ccc(OCCN4CCOCC4)cc3)nc2N)cc1 [compound 267, 5-amino-1-(4-(tert-butoxy)phenyl)carbonyl-3-[4-[2-(morpholin-4-yl)ethoxy]phenylamino]-1H-1,2,4-triazole]
- IC50 [1]: < 1 µM
